Data taken from ChEMBL document CHEMBL1938275, “Antibacterial activity of chalcones, hydrazones and oxadiazoles against methicillin-resistant Staphylococcus aureus” (Bioorg Med Chem Lett, 2012).
≈ marks a conversion by molar mass, not a printed value.

What was measured:
Staphylococcus aureus [1] = assay: Antibacterial activity against methicillin-sensitive Staphylococcus aureus ATCC 25923 after 24 hrs by broth microdilution method; assay type: functional; details: ATCC 25923, 24 h
Staphylococcus aureus [2] = assay: Antibacterial activity against methicillin-resistant Staphylococcus aureus isolate 5 after 24 hrs by broth microdilution method; assay type: functional; details: isolate 5, 24 h
Staphylococcus aureus [3] = assay: Antibacterial activity against methicillin-resistant Staphylococcus aureus isolate 11 after 24 hrs by broth microdilution method; assay type: functional; details: isolate 11, 24 h
Staphylococcus aureus [4] = assay: Antibacterial activity against methicillin-resistant Staphylococcus aureus isolate 3 after 24 hrs by broth microdilution method; assay type: functional; details: isolate 3, 24 h
Staphylococcus aureus [5] = assay: Antibacterial activity against methicillin-resistant Staphylococcus aureus isolate 7 after 24 hrs by broth microdilution method; assay type: functional; details: isolate 7, 24 h
[6] = Cytotoxicity against african green monkey Vero cells assessed as cell death after 72 hrs by MTT assay; assay type: cell-based; details: chlorocebus sabaeus
Staphylococcus aureus [7] = assay: Antibacterial activity against methicillin-resistant Staphylococcus aureus isolate 8 after 24 hrs by broth microdilution method; assay type: functional; details: isolate 8, 24 h
Staphylococcus aureus [8] = assay: Selectivity index, Ratio of CC50 for african green monkey Vero cells to IC50 for Staphylococcus aureus
Staphylococcus aureus [9] = assay: Antibacterial activity against methicillin-resistant Staphylococcus aureus isolate 12 after 24 hrs by broth microdilution method; assay type: functional; details: isolate 12, 24 h
Staphylococcus aureus [10] = assay: Antibacterial activity against methicillin-resistant Staphylococcus aureus isolate 1 after 24 hrs by broth microdilution method; assay type: functional; details: isolate 1, 24 h
Staphylococcus aureus [11] = assay: Antibacterial activity against methicillin-resistant Staphylococcus aureus isolate 6 after 24 hrs by broth microdilution method; assay type: functional; details: isolate 6, 24 h
Vero = assay: Cytotoxicity against African green monkey Vero cells assessed as inhibition of cell growth after 72 hrs by MTT assay; assay type: cell-based; details: Chlorocebus sabaeus
Staphylococcus aureus [12] = assay: Antibacterial activity against methicillin-resistant Staphylococcus aureus isolate 4 after 24 hrs by broth microdilution method; assay type: functional; details: isolate 4, 24 h
Staphylococcus aureus [13] = assay: Antibacterial activity against methicillin-resistant Staphylococcus aureus isolate 10 after 24 hrs by broth microdilution method; assay type: functional; details: isolate 10, 24 h
Staphylococcus aureus [14] = assay: Antibacterial activity against methicillin-resistant Staphylococcus aureus isolate 2 after 24 hrs by broth microdilution method; assay type: functional; details: isolate 2, 24 h
Staphylococcus aureus [15] = assay: Antibacterial activity against methicillin-resistant Staphylococcus aureus isolate 13 after 24 hrs by broth microdilution method; assay type: functional; details: isolate 13, 24 h
Staphylococcus aureus [16] = assay: Antibacterial activity against methicillin-resistant Staphylococcus aureus isolate 9 after 24 hrs by broth microdilution method; assay type: functional; details: isolate 9, 24 h
Staphylococcus aureus [17] = assay: Antibacterial activity against methicillin-resistant Staphylococcus aureus isolate 14 after 24 hrs by broth microdilution method; assay type: functional; details: isolate 14, 24 h
Staphylococcus aureus [18] = assay: Antibacterial activity against methicillin-resistant Staphylococcus aureus isolate 5 at 30 ug after 24 hrs by disk diffusion assay; assay type: functional; details: isolate 5, 24 h, read-out: DIZ
Staphylococcus aureus [19] = assay: Antibacterial activity against methicillin-resistant Staphylococcus aureus isolate 4 at 30 ug after 24 hrs by disk diffusion assay; assay type: functional; details: isolate 4, 24 h, read-out: DIZ

Structure (SMILES) | MIC (Staphylococcus aureus [1]) [µg/mL] | MIC (Staphylococcus aureus [2]) [µg/mL] | MIC (Staphylococcus aureus [3]) [µg/mL] | MIC (Staphylococcus aureus [4]) [µg/mL] | MIC (Staphylococcus aureus [5]) [µg/mL] | CC50 at 72 h [6] [µg/mL] | MIC (Staphylococcus aureus [7]) [µg/mL] | Ratio CC50/IC50 (Staphylococcus aureus [8]) | MIC (Staphylococcus aureus [9]) [µg/mL] | MIC (Staphylococcus aureus [10]) [µg/mL] | MIC (Staphylococcus aureus [11]) [µg/mL] | IC50 (Vero) [µg/mL] | MIC (Staphylococcus aureus [12]) [µg/mL] | MIC (Staphylococcus aureus [13]) [µg/mL] | MIC (Staphylococcus aureus [14]) [µg/mL] | MIC (Staphylococcus aureus [15]) [µg/mL] | MIC (Staphylococcus aureus [16]) [µg/mL] | MIC (Staphylococcus aureus [17]) [µg/mL] | zone of inhibition at 30 µg/disc (Staphylococcus aureus [18]) [mm] | zone of inhibition at 30 µg/disc (Staphylococcus aureus [19]) [mm]
CC(C)=CCC/C(C)=C/Cc1c(O)ccc(C(=O)/C=C/c2ccc(O)c(CC=C(C)C)c2)c1O | 31.2 (≈ 67.7 µM) | – | – | – | – | – | – | – | – | – | – | – | – | – | – | – | – | – | – | –
COc1cc(C(=O)N/N=C/c2ccc([N+](=O)[O-])s2)cc(OC)c1OC | 15.6 (≈ 42.8 µM) | 125 (≈ 342 µM) | 125 (≈ 342 µM) | 125 (≈ 342 µM) | 125 (≈ 342 µM) | 857 (≈ 2340 µM) | 125 (≈ 342 µM) | 109.7 | 125 (≈ 342 µM) | 125 (≈ 342 µM) | 125 (≈ 342 µM) | 7.81 (≈ 21.4 µM) | 15.6 (≈ 42.8 µM) | 125 (≈ 342 µM) | 125 (≈ 342 µM) | 125 (≈ 342 µM) | 125 (≈ 342 µM) | 125 (≈ 342 µM) | – | –
O=C(CCc1ccccc1O)c1ccccc1 | 500 (≈ 2210 µM) | ≥ 1000 | ≥ 1000 | ≥ 1000 | ≥ 1000 | – | ≥ 1000 | – | ≥ 1000 | ≥ 1000 | ≥ 1000 | – | ≥ 1000 | ≥ 1000 | ≥ 1000 | ≥ 1000 | ≥ 1000 | ≥ 1000 | – | –
COc1ccc(C(=O)/C=C/c2ccc(O)cc2)c(O)c1CC=C(C)C | – | ≥ 1000 | ≥ 1000 | ≥ 1000 | ≥ 1000 | – | ≥ 1000 | – | ≥ 1000 | ≥ 1000 | ≥ 1000 | – | ≥ 1000 | ≥ 1000 | ≥ 1000 | ≥ 1000 | ≥ 1000 | ≥ 1000 | – | –
O=C(N/N=C/c1ccc([N+](=O)[O-])o1)c1ccccc1 | 62.5 (≈ 241 µM) | 62.5 (≈ 241 µM) | 125 (≈ 482 µM) | 62.5 (≈ 241 µM) | 125 (≈ 482 µM) | 489 (≈ 1890 µM) | 125 (≈ 482 µM) | 62.6 | 62.5 (≈ 241 µM) | 125 (≈ 482 µM) | 62.5 (≈ 241 µM) | 7.81 (≈ 30.1 µM) | 15.6 (≈ 60.3 µM) | 15.6 (≈ 60.3 µM) | 62.5 (≈ 241 µM) | 62.5 (≈ 241 µM) | 125 (≈ 482 µM) | 62.5 (≈ 241 µM) | – | –
CO[C@@]1(NC(=O)Cc2cccs2)C(=O)N2C(C(=O)O)=C(COC(N)=O)CS[C@@H]21 [CEFOXITIN] | – | – | – | – | – | – | – | – | – | – | – | – | – | – | – | – | – | – | 33 | 22
CC(C)=CCc1c(O)ccc(C(=O)/C=C/c2ccc(O)cc2)c1O [ISOBAVACHALCONE] | 31.2 (≈ 96.3 µM) | 62.5 (≈ 193 µM) | 62.5 (≈ 193 µM) | 62.5 (≈ 193 µM) | 125 (≈ 385 µM) | 727 (≈ 2240 µM) | 125 (≈ 385 µM) | 23.25 | 62.5 (≈ 193 µM) | 62.5 (≈ 193 µM) | 62.5 (≈ 193 µM) | 31.2 (≈ 96.3 µM) | 15.6 (≈ 48.2 µM) | 125 (≈ 385 µM) | 62.5 (≈ 193 µM) | 125 (≈ 385 µM) | 62.5 (≈ 193 µM) | 62.5 (≈ 193 µM) | – | –
O=C(/C=C/c1ccc(O)cc1)c1ccc(O)cc1O [ISOLIQUIRITIGENIN] | 31.2 (≈ 122 µM) | 62.5 (≈ 244 µM) | 62.5 (≈ 244 µM) | 62.5 (≈ 244 µM) | 62.5 (≈ 244 µM) | 464 (≈ 1810 µM) | 62.5 (≈ 244 µM) | 14.8 | 62.5 (≈ 244 µM) | 62.5 (≈ 244 µM) | 62.5 (≈ 244 µM) | 31.2 (≈ 122 µM) | 62.5 (≈ 244 µM) | 62.5 (≈ 244 µM) | 62.5 (≈ 244 µM) | 62.5 (≈ 244 µM) | 62.5 (≈ 244 µM) | 62.5 (≈ 244 µM) | – | –
O=C(CCc1ccc(O)cc1)c1c(O)cc(O)cc1O [PHLORETIN] | 250 (≈ 912 µM) | 250 (≈ 912 µM) | 250 (≈ 912 µM) | 250 (≈ 912 µM) | 250 (≈ 912 µM) | 735 (≈ 2680 µM) | 250 (≈ 912 µM) | 5.9 | 250 (≈ 912 µM) | 250 (≈ 912 µM) | 250 (≈ 912 µM) | 125 (≈ 456 µM) | 250 (≈ 912 µM) | 250 (≈ 912 µM) | 250 (≈ 912 µM) | 250 (≈ 912 µM) | 250 (≈ 912 µM) | 250 (≈ 912 µM) | – | –
CN[C@H](CC(C)C)C(=O)N[C@H]1C(=O)N[C@@H](CC(N)=O)C(=O)N[C@H]2C(=O)N[C@H]3C(=O)N[C@H](C(=O)N[C@H](C(=O)O)c4cc(O)cc(O)c4-c4cc3ccc4O)[C@H](O)c3ccc(c(Cl)c3)Oc3cc2cc(c3O[C@@H]2O[C@H](CO)[C@@H](O)[C@H](O)[C@H]2O[C@H]2C[C@](C)(N)[C@H](O)[C@H](C)O2)Oc2ccc(cc2Cl)[C@H]1O [VANCOMYCIN] | 0.2 (≈ 0.138 µM) | 0.4 (≈ 0.276 µM) | 0.8 (≈ 0.552 µM) | 0.8 (≈ 0.552 µM) | 0.8 (≈ 0.552 µM) | – | 0.8 (≈ 0.552 µM) | – | 0.8 (≈ 0.552 µM) | 0.8 (≈ 0.552 µM) | 0.4 (≈ 0.276 µM) | – | 0.8 (≈ 0.552 µM) | 0.8 (≈ 0.552 µM) | 0.8 (≈ 0.552 µM) | 0.8 (≈ 0.552 µM) | 0.8 (≈ 0.552 µM) | 0.8 (≈ 0.552 µM) | – | –
